Reference: US20230035763A1, “METHODS OF TREATING CANCER USING TUBULIN BINDING AGENTS” (BeyondSpring Pharnaceuticals, Inc., priority 2018, published 2023)

Columns and labels:
[1] = test system: A-172, SF-539, SNB-78, U-251, U-87MG; test: CellTiter-Blue cell viability assay, CNS cell lines (Active group); format: cell-based, human; set-up: key: Active: active (IC70<1 µM); Inactive: inactive (IC70>1 µM, and usually >10 µM); settings: CNS: A-172, SF-539, SNB-78, U-251, U-87MG; IC70 class, 24 h treatment + 48 h compound-free
Method: (§1) Working stock solution of the test compounds (Plinabulin, Docetaxel and Paclitaxel) were prepared in DMSO at a concentration of 3.14 (Plinabulin) or 3.3 mM (Docetaxel and Paclitaxel), and small aliquots were stored at −20° C. On each day of an experiment, a frozen aliquot of the working stock solutions was thawed and stored at room temperature prior to and during treatment. All liquid handling steps were done by the Tecan Freedom EVO 200 platform. First, serial half-log dilutions of the DMSO working stock solution were made in DMSO. The DMSO dilutions were then diluted 1:22 into cell culture medium in an intermediate dilution plate. Finally, 10 μl taken from the intermediate dilution plate was transferred to 140 μl/well of the final assay plate. […] Briefly, cells were harvested from exponential phase cultures, counted and plated in 96-well flat-bottom microtiter plates at a cell density of 4,000 to 60,000 cells/well dependent on the cell line's growth rate. […] After the initial application of the compounds for 24 hours, the compound-containing media was exchanged to media without compounds and incubation was continued for a further 48 hours until read-out. […] Following incubation with CellTiter-Blue® reagent for up to four hours, fluorescence (FU) was measured by using the Enspire Multimode Plate Reader (excitation λ=570 nm, emission λ=600 nm). […]

[2] = test system: A2780, EFO-21, EFO-27, OVCAR3; test: CellTiter-Blue cell viability assay, ovarian cell lines (Active group); format: cell-based, human; set-up: key: Active: active (IC70<1 µM); Inactive: inactive (IC70>1 µM, and usually >10 µM); settings: Ovarian: A2780, EFO-21, EFO-27, OVCAR3; IC70 class, 24 h treatment + 48 h compound-free
Method: as §1

[3] = test system: 22Rv1, DU-145, LNCaP, PC-3M; test: CellTiter-Blue cell viability assay, prostate cell lines (Active group); format: cell-based, human; set-up: key: Active: active (IC70<1 µM); Inactive: inactive (IC70>1 µM, and usually >10 µM); settings: Prostate: 22Rv1, DU-145, LNCaP, IC70 class, 24 h treatment + 48 h compound-free
Method: as §1

PC-3 = test: CellTiter-Blue cell viability assay, prostate cell line (Inactive group); format: cell-based, human; set-up: key: Active: active (IC70<1 µM); Inactive: inactive (IC70>1 µM, and usually >10 µM); settings: Prostate: PC-3; IC70 class, 24 h treatment + 48 h compound-free
Method: as §1

[4] = test system: MAXFTN401, BT-474, HCC-1937, MCF7, MDA-MB-231; test: CellTiter-Blue cell viability assay, breast cell lines (Inactive group); format: cell-based, human; set-up: key: Active: active (IC70<1 µM); Inactive: inactive (IC70>1 µM, and usually >10 µM); settings: Breast: MAXFTN401, BT-474, HCC-1937, MCF7, MDA-MB-231; IC70 class, 24 h treatment + 48 h compound-free
Method: as §1

[5] = test system: CAL-51, HS578T, JIMT-1, MCF10A, MX1; test: CellTiter-Blue cell viability assay, breast cell lines (Active group); format: cell-based, human; set-up: key: Active: active (IC70<1 µM); Inactive: inactive (IC70>1 µM, and usually >10 µM); settings: Breast: CAL-51, HS578T, IC70 class, 24 h treatment + 48 h compound-free
Method: as §1

[6] = test system: LXFA289, LXFA526, LXFA629, LXFA983, A549, HOP-62, NCI-H322M, NCI-H226, SK-MES-1, A427, NCI-H1299, H2171, SCLC-21H; test: CellTiter-Blue cell viability assay, lung cell lines (Inactive group); format: cell-based, human; set-up: key: Active: active (IC70<1 µM); Inactive: inactive (IC70>1 µM, and usually >10 µM); settings: Lung: LXFA289, LXFA526, LXFA629, LXFA983, A549, HOP-62, NCI-H322M, IC70 class, 24 h treatment + 48 h compound-free
Method: as §1

[7] = test system: Calu-, LXFL1121, NCI-H460; test: CellTiter-Blue cell viability assay, lung cell lines (Active group); format: cell-based, human; set-up: key: Active: active (IC70<1 µM); Inactive: inactive (IC70>1 µM, and usually >10 µM); settings: IC70 class, 24 h treatment + 48 h compound-free
Method: as §1

OVXF899, OVXF1023 = test: CellTiter-Blue cell viability assay, ovarian cell lines (Inactive group); format: cell-based, human; set-up: key: Active: active (IC70<1 µM); Inactive: inactive (IC70>1 µM, and usually >10 µM); settings: IC70 class, 24 h treatment + 48 h compound-free
Method: as §1

[8] = test system: 43 human cancer cell lines (breast, lung, prostate, ovarian or CNS); test: CellTiter-Blue cell viability assay, IC70, panel of human cancer cell lines; format: cell-based; settings: 24 h treatment, then 48 h without plinabulin
Source text: Plinabulin is a tubulin targeted agent that binds near the colchicine site in β-tubulin and is being tested in a Phase 3 clinical study for the treatment of non-small cell lung cancer. The colchicine site is distinct from the binding site of taxanes (e.g. Paclitaxel and docetaxel), and binding site and other differences between tubulin targeted agents are often associated with differing effects on biological functions, disease outcomes and safety profiles. Additional indications are being considered for plinabulin so a model for selecting especially responsive patients would be of significant value. As a first step towards building this model, the in vitro activity of Plinabulin against 43 human cancer cell lines (breast, lung, prostate, ovarian or CNS), previously characterized for mRNA expression with the Affymetrix HGU133 Plus 2.0 array, was evaluated. Although screening for in vitro anticancer activity is typically performed with constant treatment of the agent for 48-72 hours, cells were treated for only 24 hours with plinabulin and then cultured for another 48 hours without plinabulin.
Typically anticancer activity is judged at the 50% effect level (50% reduction in viable tumor cells), but viable cell concentration are quantified here with a Cell Titer-Blue Assay to find the concentration causing a 70% reduction in the quantity of viable tumor cells (IC70). […]

## CC(C)(C)c1[nH]cnc1/C=c1\[nH]c(=O)/c(=C/c2ccccc2)[nH]c1=O [Plinabulin]
[1]
  Plinabulin Activity: Active
[2]
  Plinabulin Activity: Active
[3]
  Plinabulin Activity: Active
PC-3
  Plinabulin Activity: Inactive
[4]
  Plinabulin Activity: Inactive
[5]
  Plinabulin Activity: Active
[6]
  Plinabulin Activity: Inactive
[7]
  Plinabulin Activity: Active
OVXF899, OVXF1023
  Plinabulin Activity: Inactive
[8]; 21 cell lines of the Active category
  IC70 (concentration causing a 70% reduction in the quantity of viable tumor cells): < 1.0 µM
[8]; 91% of the cell lines of the Inactive category
  IC70 (concentration causing a 70% reduction in the quantity of viable tumor cells): > 9.5 µM
